These results are taken from PMC4893612 (Scientific Reports, 2016).

For orientation: IC50 means the point on the concentration scale where inhibition reaches its midpoint. Read a high IC50 as lower potency.

Type in all cases: cell-based
Assay [1] concerns KMS-11. The assay can be described thus: MTT antiproliferative assay, KMS-11. The conditions noted are these: Homo sapiens, 72 hours. The procedure:
(§1) Cell viability was monitored by the MTT (3-(4,5-dimethylthiazol-2-yl)-2,5-diphenyltetrazolium bromide) assay. For the MTT assay, cells were suspended at 5 × 10^5 cells/ml, and 100 μl aliquots were dispended into 96-well microtiter plates and exposed to drugs as described using DMSO control. At the end of incubations, 10 μl of a stock solution of 5 mg/ml MTT (3-(4,5-dimethylthiazol-2-yl)-2,5-diphenyltetrazolium bromide), was added into each well, and the plates were incubated 4 hours at 37 °C. Formazan crystals were dissolved with 100 μl of 10% SDS/10 mM HCl solution overnight at 37 °C. Since MTT assays are affected by mitochondrial activity, and since OXPHOS is affected by VLX1570 (unpublished observation), we used the acid phosphatase method[49] to determine cell viability in some experiments. After washing twice with PBS, cells were lysed in 100 μl of 0.1 M sodium acetate, 0,1% Triton X-100, p-nitrophenylphosphate (Pierce Biotechnology Inc, Rockford, IL) and incubated for 90 min at 37 °C. At the end of the incubation, 10 μl NaOH was added to each well and A405 was determined.
Background: Tetrazolium assays rely on reduction of a dye to a coloured formazan, in cell work by metabolically active cells.

The subject of assay [2] is RPMI8226. The assay is described as follows: MTT antiproliferative assay, RPMI8226. The conditions noted are these: Homo sapiens, RPMI-8226, 72 hours. The method, then:
as §1

The target in assay [3] is USP14 (Homo sapiens, UniProt P54578). The assay is described as follows: Cellular thermal shift assay (CETSA) in OPM-2 cells. The conditions noted are these: 1 hour. Also on record: endogenous in cells; host or cells: OPM-2 multiple myeloma cells. The procedure: For CETSA, the same amount of cells as one sample was treated with required condition and collected as described. Each sample was suspended in PBS supplemented with protease inhibitors after they were washed in PBS. And then these samples were heated at 51, 53, or 55 °C for 3 min. Immediately after heating, tubes were removed and incubated at room temperature for 3 min, and then snap-frozen in liquid nitrogen. Samples were freeze-thawed twice and centrifuged at 20,000 g for 20 min at +4 °C and supernatants were analysed by Western-blotting.

The test system of assay [4] is OPM-2. The assay can be described thus: MTT antiproliferative assay, OPM-2. The conditions noted are these: Homo sapiens, 72 hours. The method, then:
as §1

Assay [5] deals with OPM-2-BZ^R. The assay is described as follows: MTT antiproliferative assay, OPM-2-BZR. The conditions noted are these: Homo sapiens, OPM-2-BZ^R (bortezomib resistant), 72 hours. The method, then:
as §1

Chain of USP14 (P54578 whole entry): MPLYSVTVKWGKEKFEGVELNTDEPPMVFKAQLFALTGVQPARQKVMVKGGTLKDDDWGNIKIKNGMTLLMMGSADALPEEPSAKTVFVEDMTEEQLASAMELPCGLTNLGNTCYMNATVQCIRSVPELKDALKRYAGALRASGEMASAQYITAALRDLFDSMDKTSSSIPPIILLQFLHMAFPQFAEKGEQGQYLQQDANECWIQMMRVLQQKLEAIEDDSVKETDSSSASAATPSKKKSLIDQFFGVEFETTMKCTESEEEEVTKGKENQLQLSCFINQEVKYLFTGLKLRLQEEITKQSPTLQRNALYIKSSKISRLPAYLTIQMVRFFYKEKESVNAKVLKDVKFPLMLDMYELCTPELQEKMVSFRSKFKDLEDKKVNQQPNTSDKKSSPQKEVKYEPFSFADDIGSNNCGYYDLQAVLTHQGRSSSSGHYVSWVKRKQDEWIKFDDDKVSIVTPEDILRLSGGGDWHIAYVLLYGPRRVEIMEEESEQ

In the case of `C=CC(=O)N1C/C(=C\c2ccc([N+](=O)[O-])cc2)C(=O)/C(=C/c2ccc([N+](=O)[O-])cc2)C1` [b-AP15], the IC50 is 83 ± 3 nM in assay [1], 150 ± 14 nM in assay [2], 160 ± 3 nM in assay [4] and 268 ± 12 nM in assay [5]. In addition, the “thermostabilization of USP14” value in assay [3] (1 μM) was “induced thermostabilization”.

Regarding `CCC[C@H](NC(=O)/C(C#N)=C/c1cccc(Br)n1)c1ccccc1` [WP1130, reference compound], the “thermostabilization of USP14” value in assay [3] (5 μM) is on record as “induced thermostabilization”.

Take `CC(C)C[C@H](NC(=O)[C@H](Cc1ccccc1)NC(=O)c1cnccn1)B(O)O` [bortezomib]: the IC50 in assay [1] stood at 67 ± 3 nM; in assay [2], 84 ± 5 nM; in assay [4] it was 32 ± 1 nM; in assay [5], 204 ± 10 nM.
